Test results published in the supplement of paper PMC10307832.

How the values were obtained:
Assay in all cases: relative viability (nuclei count vs DMSO), 5 days (fraction); higher = more cells survive
RU-SKI 43 + AZD7762 = compound: CC[C@@H](C)CNCC(=O)N1CCC2=C([C@@H]1COC3=CC=CC(=C3)C)C=CS2 [RU-SKI 43] + NC(=O)Nc1cc(-c2cccc(F)c2)sc1C(=O)N[C@H]1CCCNC1 [AZD7762] (partner 0.2 µM)
Summary of the method: (§1)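 Lung cancer cell lines in 1536-well plates got either a single drug or a fixed anchor-drug dose together with five library-drug doses (not always all listed) in √10 steps, by pin tool, on the day after seeding. Nuclei were counted after 5 days, and relative viability is the treated-to-vehicle ratio of nuclei counts. Values are medians of duplicate plates.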

Irinotecan + AZD7762 = compound: CCc1c2c(nc3ccc(OC(=O)N4CCC(N5CCCCC5)CC4)cc13)-c1cc3c(c(=O)n1C2)COC(=O)[C@]3(O)CC [Irinotecan] + NC(=O)Nc1cc(-c2cccc(F)c2)sc1C(=O)N[C@H]1CCCNC1 [AZD7762] (partner 0.2 µM)
Summary of the method: as §1

RU-SKI 43 + Dasatinib = compound: CC[C@@H](C)CNCC(=O)N1CCC2=C([C@@H]1COC3=CC=CC(=C3)C)C=CS2 [RU-SKI 43] + Cc1nc(Nc2ncc(C(=O)Nc3c(C)cccc3Cl)s2)cc(N2CCN(CCO)CC2)n1 [Dasatinib] (partner 0.075 µM)
Summary of the method: as §1

MK-8033 + Olaparib = compound: Cn1cc(-c2cnc3ccc4ccc(CS(=O)(=O)NCc5ccccn5)cc4c(=O)c3c2)cn1 [MK-8033] + O=C(c1cc(Cc2n[nH]c(=O)c3ccccc23)ccc1F)N1CCN(C(=O)C2CC2)CC1 [Olaparib] (partner 8 µM)
Summary of the method: as §1

Cell Line	relative viability (RU-SKI 43 + AZD7762; first compound 0.1 µM)	relative viability (RU-SKI 43 + AZD7762; first compound 0.3162 µM)	relative viability (RU-SKI 43 + AZD7762; first compound 1 µM)	relative viability (RU-SKI 43 + AZD7762; first compound 3.162 µM)	relative viability (RU-SKI 43 + AZD7762; first compound 10 µM)	relative viability (Irinotecan + AZD7762; first compound 0.6325 µM)	relative viability (Irinotecan + AZD7762; first compound 2 µM)	relative viability (Irinotecan + AZD7762; first compound 6.325 µM)	relative viability (Irinotecan + AZD7762; first compound 20 µM)	relative viability (RU-SKI 43 + Dasatinib; first compound 0.1 µM)	relative viability (RU-SKI 43 + Dasatinib; first compound 0.3162 µM)	relative viability (RU-SKI 43 + Dasatinib; first compound 1 µM)	relative viability (RU-SKI 43 + Dasatinib; first compound 3.162 µM)	relative viability (RU-SKI 43 + Dasatinib; first compound 10 µM)	relative viability (MK-8033 + Olaparib; first compound 0.02 µM)	relative viability (MK-8033 + Olaparib; first compound 0.06325 µM)	relative viability (MK-8033 + Olaparib; first compound 0.2 µM)	relative viability (MK-8033 + Olaparib; first compound 0.6325 µM)	relative viability (MK-8033 + Olaparib; first compound 2 µM)
NCI-H3122	0.957	1.27	1.01	1.15	0.95	0.941	0.34	0.145	0.139	0.959	0.913	0.806	0.778	0.838	0.576	0.662	0.618	0.572	0.589
SW 900	0.523	0.612	0.571	0.588	0.58		0.587	0.472	0.404	0.565	0.679	0.769	0.46	0.423	0.851	0.876	0.852	0.788	0.812
NCI-H1437	1.16	1.28	1.16	1.12	1.08	0.891	0.557	0.261	0.174	0.541	0.452	0.472	0.452	0.377	0.632	0.619	0.596	0.633	0.598
NCI-H1651	0.506	0.467	0.549	0.535	0.456	0.234	0.368	0.172	0.15	0.439	0.393	0.412	0.332	0.491	0.202	0.175	0.181	0.178	0.16
NCI-H2087	1.33	1.65	1.3	1.36	1.31	0.586	0.387	0.242	0.226	0.998	1.48	0.866	0.938	0.943	0.593	0.57	0.535	0.492	0.622
NCI-H2342	0.474		0.564	0.468	0.477	0.516	0.514	0.489	0.462	0.34	0.313	0.321	0.319	0.317	0.448	0.393	0.507	0.424	0.418
ChaGo-K-1	0.877	1.04	0.836	0.921	0.801	0.584	0.542	0.27	0.204	0.651	0.532	0.574	0.492	0.502	0.442	0.412	0.415	0.433	0.372
LXF-289	1.13	1.11	1.14	1.09	1.03	1.01	1.05	0.425	0.192	0.217	0.21	0.218	0.231	0.187	1.06	1.05	1.02	1.12	1.03
